Results reported in patent US4330529A, “Antibacterial composition” (Fujisawa Pharmaceutical Co., Ltd., priority 1979, dated 1982).
In brackets after ≈: the same amount, converted by molar mass. Where two headings read alike, the source gives them in different places.

Tests used:
[1] = system: Proteus mirabilis 1432-75; assay: MIC and FIC, Nutrient agar (Tests 2, 3); format: cell-based; details: Proteus mirabilis, 143275; P. mirabilis 1432-75; 20 h; read-out: MIC
[2] = system: Alcaligenes faecalis 1311-1; assay: MIC and FIC, Nutrient agar (Test 2); format: cell-based; details: 13111, A. faecalis 1311-1, 20 h
Protocol: (§1) After the incubation was carried out at 37° C. for 20 hours, MIC values were determined.
(§2) FIC values and FIC Index were calculated in substantially the same manner as described in Test 1.

[3] = system: Enterobacter aerogenes 1402-10; assay: MIC and FIC, Nutrient agar (Tests 2, 3); format: cell-based; details: Klebsiella aerogenes, 140210; E. aerogenes 1402-10; 20 h; read-out: MIC
[4] = system: Proteus vulgaris IAM-1025; assay: MIC and FIC, Nutrient agar (Test 2); format: cell-based; details: IAM1025, P. vulgaris IAM-1025, 20 h
Protocol: as §1, §2

[5] = system: Shigella flexneri Ia EW-8; assay: MIC and FIC, Nutrient agar (Test 2); format: cell-based; details: IAEW8, S. flexneri Ia EW-8, 20 h
Protocol: as §1

[6] = system: Serratia marcescens 1421-4; assay: MIC and FIC, Nutrient agar (Tests 2, 3); format: cell-based
[7] = system: Salmonella paratyphi A-1015; assay: MIC and FIC, Nutrient agar (Test 2); format: cell-based; details: Salmonella enterica; S. paratyphi A-1015; 20 h
Protocol: as §1, §2

[8] = system: Salmonella enteritidis 1891; assay: MIC and FIC, Nutrient agar (Test 2); format: cell-based; details: Salmonella enterica; S. enteritidis 1891; 20 h
Protocol: as §1

[9] = system: Staphylococcus epidermidis 1601-1; assay: MIC and FIC, Nutrient agar (Tests 2, 3); format: cell-based; details: 16011, S. epidermidis 1601-1, 20 h
Protocol: as §1

[10] = system: Enterobacter cloacae 1401-4; assay: MIC and FIC, Nutrient agar (Tests 2, 3); format: cell-based; details: E. cloacae 1401-4
Proteus morganii 1433-2 = assay: MIC and FIC, Nutrient agar (Tests 2, 3); format: cell-based; details: Morganella morganii, 14332; P. morganii 1433-2; 20 h
Protocol: as §1

[11] = system: Salmonella typhimurium 1406; assay: MIC and FIC, Nutrient agar (Tests 2, 3); format: cell-based; details: Salmonella enterica, TYPHIMURIUM, 20 h
[12] = system: Klebsiella pneumoniae NCTC 418; assay: MIC and FIC, Nutrient agar (Tests 2, 3); format: cell-based; details: NCTC418, K. pneumoniae NCTC 418, 20 h
Protocol: as §1

[13] = system: Escherichia coli 1341-18R^+; assay: MIC and FIC, Nutrient agar (Test 3); format: cell-based; details: 20 h
[14] = system: Pseudomonas aeruginosa 1101-76; assay: MIC and FIC, Nutrient agar (Test 3); format: cell-based; details: Pseudomonas aeruginosa, 110176; P. aeruginosa 1101-76; 20 h; read-out: MIC
Proteus vulgaris 7 = assay: MIC and FIC, Nutrient agar (Tests 7, 9); format: cell-based; details: P. vulgaris 7
Citrobacter freundii 35 = assay: MIC and FIC, Nutrient agar (Tests 6, 7, 9); format: cell-based; details: C. freundii 35, 18 h
Proteus rettgeri 1434-3 = assay: MIC and FIC, Nutrient agar (Test 3); format: cell-based; details: Providencia rettgeri, 14343; P. rettgeri 1434-3; 20 h
Protocol: as §1, §2

[15] = system: Pseudomonas aeruginosa No.9; assay: MIC and FIC, Nutrient agar, multiple inoculator (Test 4); format: cell-based; details: P. aeruginosa No.9, 10^8 cells/ml, 20 h
Protocol: as §1, §2

Escherichia coli No.14 = assay: as above; format: cell-based; details: E. coli No.14, 10^8 cells/ml, 20 h
Protocol: as §1

[16] = system: Pseudomonas aeruginosa No.7; assay: as above; format: cell-based; details: P. aeruginosa No.7, 10^8 cells/ml, 20 h
Protocol: as §1, §2

[17] = system: Pseudomonas aeruginosa No.5; assay: MIC and FIC, Nutrient agar, multiple inoculator (Tests 4, 5); format: cell-based; details: P. aeruginosa No.5, 10^8 cells/ml, 20 h
Protocol: as §1

[18] = system: Pseudomonas aeruginosa No.15; assay: MIC and FIC, Nutrient agar, multiple inoculator (Test 4); format: cell-based; details: P. aeruginosa No.15, 10^8 cells/ml, 20 h
Protocol: as §1, §2

[19] = system: Pseudomonas aeruginosa No.14; assay: as above; format: cell-based; details: P. aeruginosa No.14, 10^8 cells/ml, 20 h
Protocol: as §1, §2

[20] = system: Pseudomonas aeruginosa 77; assay: MIC and FIC, Nutrient agar (Test 7); format: cell-based; details: P. aeruginosa 77, 18 h
Protocol: as §2

Staphylococcus aureus 2 = assay: MIC and FIC, Nutrient agar (Test 7); format: cell-based; details: S. aureus 2, 18 h
Protocol: as §2

Proteus mirabilis 48 = assay: MIC and FIC, Nutrient agar (Test 7); format: cell-based; details: P. mirabilis 48, 18 h
Protocol: as §2

[21] = system: Enterobacter aerogenes 25; assay: microbe, parasite or virus in culture; details: Klebsiella aerogenes, 25, 18 h
Escherichia coli 82 = assay: MIC and FIC, Nutrient agar (Test 7); format: cell-based; details: E. coli 82, 18 h
Protocol: as §2

Staphylococcus aureus 1 = assay: MIC and FIC, Nutrient agar (Test 7); format: cell-based; details: S. aureus 1, 18 h
Protocol: as §2

Proteus mirabilis 5 = assay: MIC and FIC, Nutrient agar (Test 7); format: cell-based; details: P. mirabilis 5, 18 h
Protocol: as §2

[22] = system: Pseudomonas aeruginosa 42; assay: MIC and FIC, Nutrient agar (Test 7); format: cell-based
Protocol: as §2

Serratia marcescens 27 = assay: MIC and FIC, Nutrient agar (Test 7); format: cell-based; details: S. marcescens 27, 18 h
Protocol: as §2

Enterobacter aerogenes 7 = assay: MIC and FIC, Nutrient agar (Tests 6, 7, 9); format: cell-based; details: E. aerogenes 7, 18 h
Protocol: as §2

Escherichia coli 116 = assay: MIC and FIC, Nutrient agar (Test 7); format: cell-based; details: E. coli 116, 18 h
Protocol: as §2

Enterobacter cloacae 18 = assay: MIC and FIC, Nutrient agar (Tests 7, 9); format: cell-based; details: Enterobacter cloacae, 18, 18 h, E. cloacae 18, read-out: MIC
Protocol: as §2

Proteus vulgaris 22 = assay: MIC and FIC, Nutrient agar (Test 9); format: cell-based; details: P. vulgaris 22, 18 h
Protocol: as §2

Serratia marcescens 4 = assay: MIC and FIC, Nutrient agar (Test 9); format: cell-based; details: S. marcescens 4, 18 h
Protocol: as §2

Citrobacter freundii 63 = assay: MIC and FIC, Nutrient agar (Test 9); format: cell-based; details: C. freundii 63, 18 h
Protocol: as §2

[23] = system: Pseudomonas aeruginosa No.12; assay: MIC and FIC, Nutrient agar, multiple inoculator (Test 5); format: cell-based; details: P. aeruginosa No.12; 10^8 cells/ml, 20 h
Protocol: as §1, §2

[24] = system: Pseudomonas aeruginosa No.11; assay: as above; format: cell-based; details: P. aeruginosa No.11; 10^8 cells/ml, 20 h
Protocol: as §1, §2

Proteus vulgaris 5 = assay: MIC and FIC, Nutrient agar (Test 6); format: cell-based; details: P. vulgaris 5; 18 h
Protocol: as §2

Staphylococcus aureus 3 = assay: MIC and FIC, Nutrient agar (Tests 6, 7); format: cell-based; details: S. aureus 3; 18 h
Protocol: as §2

Escherichia coli 99 = assay: MIC and FIC, Nutrient agar (Test 6); details: E. coli 99; 18 h
Protocol: as §2

[25] = system: Pseudomonas aeruginosa No.13; assay: MIC and FIC, Nutrient agar, multiple inoculator (Test 5); format: cell-based; details: P. aeruginosa No.13; 10^8 cells/ml, 20 h
Protocol: as §1, §2

[26] = system: Pseudomonas aeruginosa No.18; assay: as above; format: cell-based; details: P. aeruginosa No.18; 10^8 cells/ml, 20 h
Protocol: as §1, §2

Klebsiella pneumoniae 8 = assay: Isobologram, growth in Nutrient broth in various combination ratios (Test 8); format: cell-based; set-up: key: +: the test microorganism grew; -: the test microorganism did not grow; details: phosphonic acid salt 0
Protocol: After the incubation was carried out at 37° C. for 18 hours, the growth of the test organism was observed.

Serratia marcescens 9 = assay: MIC and FIC, Nutrient agar (Test 6); format: cell-based; details: S. marcescens 9; 18 h
Protocol: as §2

[27] = Klebsiella aerogenes, read-out: MIC

CC1(C)S[C@@H]2[C@H](NC(=O)[C@H](N)c3ccccc3)C(=O)N2[C@H]1C(=O)O [B (Table 2), ampicillin]
MIC [1]: 0.39 µg/mL
MIC [2]: 6.25 µg/mL
MIC [3]: 200 µg/mL
MIC [4]: 0.78 µg/mL
MIC [5]: 0.78 µg/mL
MIC ([6]; Serratia marcescens, 14214, 20 h): 25 µg/mL
MIC [7]: 0.39 µg/mL
MIC [8]: 0.39 µg/mL
MIC [9]: 0.2 µg/mL
MIC ([10]; Enterobacter cloacae, 14014, 20 h): 100 µg/mL
MIC (Proteus morganii 1433-2): 25 µg/mL
MIC [11]: 0.39 µg/mL
MIC [12]: 12.5 µg/mL

Cc1nnc(SCC2=C(C(=O)O)N3C(=O)[C@@H](NC(=O)Cn4cnnn4)[C@H]3SC2)s1 [B (Table 3), cefazolin]
MIC [13]: 3.13 µg/mL
MIC [14]: ≥ 400 µg/mL
MIC (Proteus vulgaris 7; Proteus vulgaris, 18 h, read-out: MIC): 100 µg/mL
MIC [3]: 12.5 µg/mL
MIC ([6]; Serratia marcescens, 14214, S. marcescens 1421-4, agar, 20 h, read-out: MIC): 400 µg/mL
MIC (Citrobacter freundii 35; Citrobacter freundii, read-out: MIC): 50 µg/mL
MIC [9]: 0.39 µg/mL
MIC ([10]; Enterobacter cloacae, 14014, 20 h, read-out: MIC): ≥ 400 µg/mL
MIC (Proteus morganii 1433-2): 25 µg/mL
MIC (Proteus rettgeri 1434-3): 6.25 µg/mL
MIC [12]: 1.56 µg/mL

CC1(C)S[C@@H]2[C@H](NC(=O)C(C(=O)O)c3ccccc3)C(=O)N2[C@H]1C(=O)O (some centres unmarked) [B (Table 6), carbenicillin]
MIC [15]: > 800 µg/mL
MIC (Escherichia coli No.14): 12.5 µg/mL
MIC [16]: > 800 µg/mL
MIC ([17]; Pseudomonas aeruginosa, read-out: MIC): 50 µg/mL
MIC [18]: 800 µg/mL
MIC [19]: > 800 µg/mL

NC[C@@H]1CC[C@@H](N)[C@@H](O[C@H]2[C@H](O)[C@@H](O[C@H]3O[C@H](CO)[C@@H](O)[C@H](N)[C@H]3O)[C@H](N)C[C@@H]2N)O1 [B (Table 10), dibekacin]
MIC [20]: 3.13 µg/mL
MIC (Staphylococcus aureus 2): 1.56 µg/mL
MIC (Proteus vulgaris 7; Proteus vulgaris, 7, 18 h): 50 µg/mL
MIC (Citrobacter freundii 35; Citrobacter freundii, 35, 18 h): 6.25 µg/mL
MIC (Proteus mirabilis 48): 12.5 µg/mL
MIC [21]: 6.25 µg/mL (≈ 13.8 µM)
MIC (Escherichia coli 82): 6.25 µg/mL

NCC[C@H](O)C(=O)N[C@@H]1C[C@H](N)[C@@H](O[C@H]2O[C@H](CN)[C@@H](O)[C@H](O)[C@H]2O)[C@H](O)[C@H]1O[C@H]1O[C@H](CO)[C@@H](O)[C@H](N)[C@H]1O [B (Table 11), amikacin]
MIC (Staphylococcus aureus 1): 0.78 µg/mL
MIC (Proteus mirabilis 5): 3.13 µg/mL
MIC ([22]; Pseudomonas aeruginosa, P. aeruginosa 42, 18 h, read-out: MIC): 6.25 µg/mL
MIC (Serratia marcescens 27): 12.5 µg/mL
MIC (Enterobacter aerogenes 7; [27]): 6.25 µg/mL

NC[C@H]1O[C@H](O[C@H]2[C@H](O)[C@@H](O[C@H]3O[C@H](CO)[C@@H](O)[C@H](N)[C@H]3O)[C@H](N)C[C@@H]2N)[C@H](N)[C@@H](O)[C@@H]1O [B (Table 12), bekanamycin]
MIC ([22]; Pseudomonas aeruginosa, 42, 18 h): 100 µg/mL
MIC (Escherichia coli 116): 200 µg/mL
MIC (Enterobacter cloacae 18): 6.25 µg/mL
MIC (Enterobacter aerogenes 7; [27]): 6.25 µg/mL

CC1=C(C(=O)O)N2C(=O)[C@@H](NC(=O)[C@H](N)c3ccccc3)[C@H]2SC1 [B (Table 14), Cephalexin]
MIC (Proteus vulgaris 22): 25 µg/mL
MIC (Serratia marcescens 4): 400 µg/mL
MIC (Enterobacter cloacae 18): 100 µg/mL
MIC (Citrobacter freundii 63): 400 µg/mL
MIC (Enterobacter aerogenes 7; [27]): 100 µg/mL

gentamicin [B (Table 7)]
MIC [23]: 12.5 µg/mL
MIC [24]: 3.13 µg/mL
MIC (Proteus vulgaris 5): 6.25 µg/mL
MIC [17]: 50 µg/mL
MIC (Staphylococcus aureus 3): 0.39 µg/mL
MIC (Escherichia coli 99): 12.5 µg/mL
MIC [25]: 100 µg/mL
MIC [26]: 50 µg/mL
MIC (Citrobacter freundii 35): 3.13 µg/mL
growth of the test organism (Klebsiella pneumoniae 8; gentamicin sulfate 0.001 mcg/ml): +
growth of the test organism (Klebsiella pneumoniae 8; gentamicin sulfate 0.003 mcg/ml): +
growth of the test organism (Klebsiella pneumoniae 8; gentamicin sulfate 0.006 mcg/ml): +
growth of the test organism (Klebsiella pneumoniae 8; gentamicin sulfate 0.01 mcg/ml): +
growth of the test organism (Klebsiella pneumoniae 8; gentamicin sulfate 0.025 mcg/ml): +
growth of the test organism (Klebsiella pneumoniae 8; gentamicin sulfate 0.05 mcg/ml): -
MIC (Enterobacter aerogenes 7): 6.25 µg/mL
MIC (Serratia marcescens 9): 50 µg/mL
